Publication PMC10924921, “Mi-2β promotes immune evasion in melanoma by activating EZH2 methylation” (Nature Communications, 2024)

Experiments:
Pharmacokinetics in rats = assay type: in vivo; settings: Sprague-Dawley, rat, serum, ip, intraperitoneal 1.0 mg/kg, male SD rats
Experimental: Compound Z36-MP5 was evaluated in a pharmacokinetic study in male Sprague-Dawley (SD) rats following intraperitoneal injection of Z36-MP5 at 1.0 mg/kg as a solution in 5% DMSO, 30% PEG400, and 65% corn oil. Blood was collected at 0.25, 0.5, 1, 2, 4, 8, and 24 h following intraperitoneal injection. The blood samples were placed in wet ice, and serum was collected after centrifugation. Serum samples were frozen and stored at −80 °C. The serum samples were analyzed utilizing HPLC-coupled tandem mass spectrometry. Values are calculated from arithmetic mean plasma concentrations (n = 3 rats per condition). Rats experiments were done according to protocols approved by the ethics committee review board of University of Arkansas for Medical Science and in accordance with the guidelines set forth by the US National Institutes of Health.

B16F10 cells = assay: CCK-8 cell proliferation; assay type: cell-based, mouse; settings: CCK-8, B16F10 cells
Experimental: To test whether Z36-MP5 affects cell proliferation, cells were seeded into 96-well plates at a density of 1 × 10^3 cells/100 μl per well. CCK-8 was used to detect changes in proliferation ability after 3 days of treatment with Z36-MP5 (25 μM). To test whether Mi-2β expression in T cells or treatment of T cells with Z36-MP5 affects the ability of T cells to kill tumor cells, Mi-2β in Pmel-1 T cells was manipulated or Pmel-1 cells were exposed to Z36-MP5 (25 μM) for 24 hrs. The number of cells was quantified. One thousand Pmel-1 T cells were then co cultured with 1000 tumor cells for 24 hrs, and the number of tumor cells was counted.
Supplementary Figure 8. In vitro assay for Mi-2β inhibitors. a The body weight changes of C57BL/6J mice treated with Z36-MP5 (30 mg/kg/day) for 2 weeks. Data are mean ± SEM (n=5). b H&E staining of tissues in C57BL/6J mice treated with or without Z36 -MP5 (30 mg/kg/day) for 2 weeks. […]
The growth of tumor grafts was measured. n = 5. g Mice bearing B16F10 cell s were treated with MS177 (100 mg/kg, 5 days) and then Z36 -MP5 (30 mg/kg/day) or vehicles, accompanied with anti -PD-1 antibody […]

ABL1-nonphosphorylated = target: T1, ABL1-nonphosphorylated (Homo sapiens, UniProt P00519); assay: biochemical; design: KINOMEscan active-site competition binding panel (468 kinase assays), per cent of control at 1000 nM; settings: KINOMEscan per cent of control (binding competition); read-out: Percent Control
T1 construct: nonphosphorylated
T1 sequence (P00519 whole entry): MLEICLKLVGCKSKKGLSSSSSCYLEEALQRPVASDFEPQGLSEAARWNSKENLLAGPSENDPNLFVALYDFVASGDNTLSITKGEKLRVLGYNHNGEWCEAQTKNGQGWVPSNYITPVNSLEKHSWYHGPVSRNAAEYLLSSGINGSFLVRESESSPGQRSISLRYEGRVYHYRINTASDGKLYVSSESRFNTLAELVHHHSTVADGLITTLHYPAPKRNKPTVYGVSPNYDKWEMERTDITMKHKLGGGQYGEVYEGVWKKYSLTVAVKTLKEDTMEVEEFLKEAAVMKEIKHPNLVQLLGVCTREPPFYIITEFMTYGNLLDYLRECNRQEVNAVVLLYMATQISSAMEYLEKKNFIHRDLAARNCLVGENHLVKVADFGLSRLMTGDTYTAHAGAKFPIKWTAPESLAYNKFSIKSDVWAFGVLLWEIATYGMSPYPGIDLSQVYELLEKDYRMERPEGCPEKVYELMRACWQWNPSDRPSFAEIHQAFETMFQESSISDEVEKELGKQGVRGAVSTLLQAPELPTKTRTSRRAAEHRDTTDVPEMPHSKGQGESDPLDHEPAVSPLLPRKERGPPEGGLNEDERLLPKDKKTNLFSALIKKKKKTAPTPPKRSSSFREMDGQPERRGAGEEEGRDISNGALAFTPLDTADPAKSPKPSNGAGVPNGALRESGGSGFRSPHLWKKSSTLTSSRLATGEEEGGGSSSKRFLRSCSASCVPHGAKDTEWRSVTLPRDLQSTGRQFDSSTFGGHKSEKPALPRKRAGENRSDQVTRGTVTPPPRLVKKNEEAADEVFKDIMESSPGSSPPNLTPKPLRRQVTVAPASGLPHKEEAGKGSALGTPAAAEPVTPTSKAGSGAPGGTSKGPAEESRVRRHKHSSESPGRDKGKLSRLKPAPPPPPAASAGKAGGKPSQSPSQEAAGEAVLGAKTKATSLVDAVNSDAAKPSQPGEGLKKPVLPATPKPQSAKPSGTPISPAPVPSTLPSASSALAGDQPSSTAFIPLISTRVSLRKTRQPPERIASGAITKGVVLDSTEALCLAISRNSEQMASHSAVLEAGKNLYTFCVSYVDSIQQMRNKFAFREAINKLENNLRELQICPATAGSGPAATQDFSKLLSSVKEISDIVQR
From the text: (§1) Figure S7 / Percent Control

MAST1 = MAST1 (Homo sapiens, UniProt Q9Y2H9); assay: biochemical; design: KINOMEscan active-site competition binding panel (468 kinase assays), per cent of control at 1000 nM; settings: KINOMEscan per cent of control (binding competition); read-out: Percent Control
From the text: as §1

BRAF = BRAF (Homo sapiens, UniProt P15056); assay: biochemical; design: KINOMEscan active-site competition binding panel (468 kinase assays), per cent of control at 1000 nM; settings: KINOMEscan per cent of control (binding competition); read-out: Percent Control
Chain of BRAF (P15056 whole entry): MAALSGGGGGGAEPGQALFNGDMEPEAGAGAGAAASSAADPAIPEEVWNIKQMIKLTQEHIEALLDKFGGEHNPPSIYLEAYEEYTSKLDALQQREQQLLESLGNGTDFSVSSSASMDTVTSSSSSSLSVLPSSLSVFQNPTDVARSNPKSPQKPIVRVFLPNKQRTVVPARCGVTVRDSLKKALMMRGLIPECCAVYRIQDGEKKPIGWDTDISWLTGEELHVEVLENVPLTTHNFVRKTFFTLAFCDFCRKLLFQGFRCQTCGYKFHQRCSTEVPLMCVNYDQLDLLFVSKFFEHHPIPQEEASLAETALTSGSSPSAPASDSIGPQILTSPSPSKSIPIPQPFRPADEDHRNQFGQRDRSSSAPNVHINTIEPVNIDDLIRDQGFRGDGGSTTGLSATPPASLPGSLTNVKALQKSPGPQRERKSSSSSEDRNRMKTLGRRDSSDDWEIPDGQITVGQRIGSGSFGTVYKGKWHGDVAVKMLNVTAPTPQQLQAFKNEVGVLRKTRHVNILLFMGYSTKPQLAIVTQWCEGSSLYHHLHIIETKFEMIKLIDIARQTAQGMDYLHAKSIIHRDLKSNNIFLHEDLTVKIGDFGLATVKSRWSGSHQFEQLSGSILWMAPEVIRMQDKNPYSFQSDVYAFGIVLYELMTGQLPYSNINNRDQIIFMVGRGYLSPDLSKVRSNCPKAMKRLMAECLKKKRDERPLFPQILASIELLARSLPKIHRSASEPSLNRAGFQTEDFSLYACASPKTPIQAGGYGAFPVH
From the text: as §1

BUB1 = BUB1 (Homo sapiens, UniProt O43683); assay: biochemical; design: KINOMEscan active-site competition binding panel (468 kinase assays), per cent of control at 1000 nM; settings: KINOMEscan per cent of control (binding competition); read-out: Percent Control
From the text: as §1

EGFR(E746-A750del) = EGFR(E746-A750del) (Homo sapiens, UniProt P00533, DEL746-750); assay: biochemical; design: KINOMEscan active-site competition binding panel (468 kinase assays), per cent of control at 1000 nM; settings: KINOMEscan per cent of control (binding competition); read-out: Percent Control
From the text: as §1

IKK-epsilon = target: T2, IKK-epsilon (Homo sapiens, UniProt Q14164); assay: biochemical; design: KINOMEscan active-site competition binding panel (468 kinase assays), per cent of control at 1000 nM; settings: KINOMEscan per cent of control (binding competition); read-out: Percent Control
T2 construct: gene IKBKE
T2 sequence (Q14164 whole entry): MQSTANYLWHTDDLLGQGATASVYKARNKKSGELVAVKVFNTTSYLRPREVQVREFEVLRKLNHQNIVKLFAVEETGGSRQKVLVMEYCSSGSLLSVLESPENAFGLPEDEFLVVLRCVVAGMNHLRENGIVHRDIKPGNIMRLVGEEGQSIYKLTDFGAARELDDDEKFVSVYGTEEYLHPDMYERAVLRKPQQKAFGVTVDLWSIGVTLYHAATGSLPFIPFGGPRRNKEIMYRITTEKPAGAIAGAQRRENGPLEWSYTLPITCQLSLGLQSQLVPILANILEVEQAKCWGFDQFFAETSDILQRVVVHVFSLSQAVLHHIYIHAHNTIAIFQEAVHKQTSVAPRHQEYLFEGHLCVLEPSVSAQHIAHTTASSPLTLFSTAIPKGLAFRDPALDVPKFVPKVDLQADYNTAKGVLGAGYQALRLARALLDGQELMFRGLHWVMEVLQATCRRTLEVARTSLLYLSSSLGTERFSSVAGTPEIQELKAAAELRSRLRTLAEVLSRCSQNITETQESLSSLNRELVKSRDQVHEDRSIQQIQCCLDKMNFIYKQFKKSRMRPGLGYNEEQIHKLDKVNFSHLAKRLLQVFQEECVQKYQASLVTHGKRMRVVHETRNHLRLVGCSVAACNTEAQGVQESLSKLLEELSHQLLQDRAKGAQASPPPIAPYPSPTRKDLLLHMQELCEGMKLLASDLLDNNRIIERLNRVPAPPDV
From the text: as §1

[1] = target: recombinant purified human Mi-2β protein (Homo sapiens, UniProt Q14839); assay: FRET-based nucleosome repositioning assay (EpiDyne-FRET); settings: for IC50: IC50 against Mi-2β
Chain of recombinant purified human Mi-2β protein (Q14839 whole entry): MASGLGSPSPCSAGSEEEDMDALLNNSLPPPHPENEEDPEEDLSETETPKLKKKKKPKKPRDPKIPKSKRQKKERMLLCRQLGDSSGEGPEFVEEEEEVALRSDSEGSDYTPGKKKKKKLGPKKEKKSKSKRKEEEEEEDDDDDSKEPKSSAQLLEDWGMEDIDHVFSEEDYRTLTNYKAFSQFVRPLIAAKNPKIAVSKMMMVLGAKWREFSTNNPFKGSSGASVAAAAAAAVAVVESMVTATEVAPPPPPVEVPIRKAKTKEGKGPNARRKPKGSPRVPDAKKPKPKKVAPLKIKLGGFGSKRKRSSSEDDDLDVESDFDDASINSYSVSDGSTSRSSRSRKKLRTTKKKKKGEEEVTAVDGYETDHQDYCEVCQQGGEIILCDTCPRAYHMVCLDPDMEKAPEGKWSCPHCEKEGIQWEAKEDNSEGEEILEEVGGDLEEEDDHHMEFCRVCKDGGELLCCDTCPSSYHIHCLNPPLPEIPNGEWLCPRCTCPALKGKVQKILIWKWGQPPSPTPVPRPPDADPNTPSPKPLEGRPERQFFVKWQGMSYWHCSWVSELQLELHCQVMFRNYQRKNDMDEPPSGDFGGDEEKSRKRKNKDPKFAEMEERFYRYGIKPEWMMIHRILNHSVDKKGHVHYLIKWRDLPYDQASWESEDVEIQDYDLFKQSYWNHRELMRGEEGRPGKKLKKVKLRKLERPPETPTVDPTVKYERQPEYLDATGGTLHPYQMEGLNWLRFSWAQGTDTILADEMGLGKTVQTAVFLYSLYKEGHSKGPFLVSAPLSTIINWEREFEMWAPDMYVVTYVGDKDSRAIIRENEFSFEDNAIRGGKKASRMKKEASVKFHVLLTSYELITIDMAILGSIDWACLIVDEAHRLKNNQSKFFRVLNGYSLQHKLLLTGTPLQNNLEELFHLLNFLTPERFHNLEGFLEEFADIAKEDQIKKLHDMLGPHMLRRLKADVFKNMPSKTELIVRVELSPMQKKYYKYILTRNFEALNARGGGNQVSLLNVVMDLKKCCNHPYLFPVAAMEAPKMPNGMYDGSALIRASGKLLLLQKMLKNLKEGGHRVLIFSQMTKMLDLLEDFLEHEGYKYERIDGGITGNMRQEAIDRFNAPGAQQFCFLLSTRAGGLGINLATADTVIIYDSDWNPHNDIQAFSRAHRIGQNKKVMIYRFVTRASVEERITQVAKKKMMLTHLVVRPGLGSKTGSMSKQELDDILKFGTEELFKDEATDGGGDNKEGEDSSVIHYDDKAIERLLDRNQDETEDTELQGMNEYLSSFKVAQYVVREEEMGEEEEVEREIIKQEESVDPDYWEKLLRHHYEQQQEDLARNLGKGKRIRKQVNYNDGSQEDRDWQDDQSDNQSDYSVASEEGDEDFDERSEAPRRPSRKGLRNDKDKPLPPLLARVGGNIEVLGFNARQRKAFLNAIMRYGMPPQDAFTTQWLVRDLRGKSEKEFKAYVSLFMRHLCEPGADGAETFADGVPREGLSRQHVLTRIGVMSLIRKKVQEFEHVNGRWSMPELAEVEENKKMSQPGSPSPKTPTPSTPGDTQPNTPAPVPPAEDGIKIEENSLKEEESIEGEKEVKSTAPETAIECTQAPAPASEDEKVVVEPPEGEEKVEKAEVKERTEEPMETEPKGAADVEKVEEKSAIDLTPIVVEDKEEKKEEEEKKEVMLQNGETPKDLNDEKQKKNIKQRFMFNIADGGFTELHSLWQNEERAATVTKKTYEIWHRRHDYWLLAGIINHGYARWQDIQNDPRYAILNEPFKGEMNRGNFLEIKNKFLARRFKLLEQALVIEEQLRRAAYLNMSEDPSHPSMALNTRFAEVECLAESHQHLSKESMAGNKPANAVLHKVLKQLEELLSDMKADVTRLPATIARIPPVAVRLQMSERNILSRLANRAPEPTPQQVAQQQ

[2] = tested on: secreted Cxcl9 and Cxcl10, B16F10 cells; assay: ELISA of secreted Cxcl9 and Cxcl10 in stimulated cells; assay type: cell-based, mouse; settings: MS177 (10 μM), GSK126 (2μM) or Z36-MP5 (10 μM)
Experimental: B16F10 cells (1 × 10^6) with or without Mi-2β knockdown were seeded in 6-well plates in complete growth medium. Cell medium was changed to serum-free medium, before treatment with IFN-γ at indicated concentration for 24 h. The secreted chemokines were measured by mouse Cxcl9 ELISA kit (ab203364) and mouse Cxcl10 ELISA Kit (ab214563), according to the manufacturer’s protocols. Isolated graft tumors were prepared and minced with blades, then tumor tissues were cultured in PBS (250 mg/500 µl) for 4 h at 37 °C. The secreted amount of the chemokines in the culture were measured by mouse Cxcl9 ELISA kit (ab203364) and mouse Cxcl10 ELISA Kit (ab214563), according to the manufacturer’s protocols.
Supplementary Figure 10. Comparison of tumor growth inhibition effects between Z36-MP5 and EZH2 inhibitors. a Mice (n=8) bearing B16F10 cells were treated with control IgG or anti-PD-1 antibody in combination with Z36-MP5 or GSK126, as indicated. A mouse survival curve is shown, with log-rank test for mouse survival P value. b,c The epigenetic modifications of H3 (H3K27ac, H3K27me1 and H3K27me3) were measured in B16F10 cells stimulated with GSK126 or Z36-MP5 as indicated (n = 3, independent experiments). d The amount of secreted Cxcl9 and Cxcl10 was measured by ELISA in […]
represent mean ± SD. The unpaired, two tailed t-test. Source data are provided as a Source Data file. […]

Question: Which Cmax (Pharmacokinetics in rats) does the source give for `Cn1c(=O)[nH]c2ccc(-c3cccc(C(=O)NC4CCn5ccnc5C4)c3)cc21` (stereo not drawn) [Z36-MP5] here?
Answer: Its Cmax is 3960 ng/mL.

Question: And the half-life (Pharmacokinetics in rats; read-out: half-life T1/2 (converted))?
Answer: Its half-life is 27 min.

Question: What about the “proliferation of tumor cells” value (B16F10 cells) of the same compound?
Answer: Its value is “not significantly inhibited”.

Question: And the remaining binding at 1 µM (ABL1-nonphosphorylated)?
Answer: Its remaining binding at 1 µM is 91%.

Question: And the remaining binding at 1 µM (MAST1)?
Answer: The remaining binding at 1 µM was 72%.

Question: What about the remaining binding at 1 µM (BRAF) of the same compound?
Answer: Its remaining binding at 1 µM is 88%.

Question: What about the remaining binding at 1 µM (BUB1) of the same compound?
Answer: The remaining binding at 1 µM was 73%.

Question: And the remaining binding at 1 µM (EGFR(E746-A750del))?
Answer: Its remaining binding at 1 µM is 63%.

Question: What about the remaining binding at 1 µM (IKK-epsilon) of the same compound?
Answer: Its remaining binding at 1 µM is 84%.

Question: And the “inhibition of Mi-2β ATPase” value ([1]; 1 µM)?
Answer: Its value is “completely inhibits”.

Question: What about the IC50 ([1]; ATP 10 μM) of the same compound?
Answer: Its IC50 is 79 ± 13 nM.

Question: What about the IC50 ([1]; ATP 30 μM) of the same compound?
Answer: The IC50 was 198 ± 33 nM.

Question: And the IC50 ([1]; ATP 100 μM)?
Answer: Its IC50 is 576 ± 86 nM.

Question: And the IC50 ([1]; ATP 300 μM)?
Answer: The IC50 was 1660 ± 358 nM.

Question: What about the IC50 ([1]; Mi-2β chromatin modulatory activity, n = 3) of the same compound?
Answer: The IC50 was 82 ± 13 nM.

Question: What about the mode of inhibition ([1]; IC50 increased with ATP 10–300 µM) of the same compound?
Answer: Its mode of inhibition is “ATP-competitive inhibitor”.

Question: And the “potency relative to the original compound Z36” value ([1]; ratio of IC50 values)?
Answer: The value was ~ 85 fold.

Question: What about the “induction of ISGs compared with GSK126 or MS177” value [2] of the same compound?
Answer: Its value is “more efficiently induced”.
